Experimental data reported in patent US5273991A, “Imidazole-containing compositions and methods of use thereof analogs of distamycin” (Research Corporation Technologies, Inc., priority 1992, dated 1993).

Experiments:
[1] = system: calf thymus DNA; assay: UV-dialysis study (covalent retention on DNA); format: binding; conditions: 24 h incubation at room temperature; 20-26 hours dialysis; pH 7.1
From the text: The compounds of the present invention are useful as anticancer agents. Although the biological mechanism which results in anticancer activity is not fully understood, the compounds of the subject invention are capable of binding to the minor groove of double-stranded DNA and, unlike distamycin and netropsin, can tolerate GC-containing DNA. Accordingly, the DNA alkylating moiety of the compounds of the present invention can be directed to the minor groove of GC-containing regions of double-stranded DNA. One of ordinary skill in the art can determine the DNA alkylating ability of the compounds of the present invention by art-recognized methods. The formation of an irreversible adduct of DNA and a compound of the present invention is defined herein as a measure of the DNA alkylating ability of the subject compounds. The formation of an irreversible adduct can be determined by art-recognized methods. For example, a solution containing DNA and a compound of the present invention can be exhaustively dialyzed under conditions which allow unbound drug to pass out of the dialysis bag. The percentage of the compound which has been retained in the dialysis bag is considered to be covalently bound to the DNA, and is determined by comparing the UV absorption spectrum of the compound/DNA solution before and after exhaustive dialysis.
0.5 mL of 2A260 calf thymus DNA was diluted to 2 mL with 10 mM sodium phosphate and 0.25 mM EDTA buffer, pH 7.1. Four aliquots (3 μL each) of a 1 mM stock drug solution in distilled water were added to the DNA solution and a UV absorption spectrum (300-320) was recorded after each addition. The drug/DNA solution was incubated for 24 h at room temperature and another UV spectrum was recorded. The drug/DNA solution was then transferred into a dialysis bag and the dialysis bag was suspended in 30 mL of 10 mM sodium phosphate and 0.25 mM EDTA buffer, pH, 7.1, at room temperature. After 20-26 hours, the […] spectrum of 2 mL of the buffer outside the dialysis bag was recorded. The absorbance of the drug peak was converted to concentration by the Beer-Lambert equation, and the data was presented as percent initial concentration. Under these conditions, substantial amounts of Compounds 6 (55±5%), 7 (45±5%), 8 (85±5%) and 10 (100±5%) are retained in the dialysis bag, while only 29±5% of a formamido analog^1 is retained.

[2] = system: poly(dG.dC); assay: circular dichroism (CD) titration, poly(dG.dC); format: binding
Protocol: The DNA binding properties of the present compounds were assessed by circular dichroism (CD) titration experiments. Methods for CD titration can be found, for example, in Zimmer et al. (1986) Prog. Biophys. Molec. Biol 47, 31. The conformation of DNA can be readily determined by CD experiments, and for B-DNA, characteristic positive and negative Cotton effects are observed at 260 and 245 nm, respectively.
The interaction of Compounds 6-10 to a number of DNAs [calf thymus, poly(dA dT) and poly(dG dC)] were analyzed by CD titration studies. All the CD titration experiments were performed using identical procedures, concentrations of DNA, and increments of drug:DNA ratios (or `r`, i.e. moles of drug to moles of DNA base pairs). Therefore, the differences observed in the CD spectra for the titration of each of the compounds to the polydeoxynucleotides may be directly compared to reflect their DNA binding properties.
All experiments were performed with a continuous flow of nitrogen purging the polarimeter. A 1 mm path length jacketed cell was used and all experiments were done at room temperature. Initially, DNA [0.02 μ moles (base pairs), 130 μL] was placed in the cell and the spectrum of the DNA alone was collected. Aliquots of drug were added and the spectra collected. The drug solutions were 1 mM and amounts of the drug added correspond to a drug to base pair ratio of 0.05, 0.10, 0.15, 0.20, 0.25, 0.30, 0.40, 0.50, 0.60, 0.80, 1.00. The scan parameters were set and standard for all experiments. The spectra were collected from 400 nm to 200 nm. The sensitivity was set at 1 mdeg and the scan speed was set at 20 nm per minute. Three scans were accumulated and automatically averaged by the computer. The λmax and ellipticity (mdeg) for each spectrum were collected from the raw scans and the final plots were smoothed by the noise reduction program on the computer. […] The induced CD band is presumably due to the uv absorption π to π^* transition of the drug in the drug:DNA complex. […] Therefore interaction of these drugs with DNA causes only minor conformational changes in the double helix.

| SMILES | retained in the dialysis bag (percent initial concentration) [1] [%] | induced negative CD band, ellipticity ([2]; 330 nm, r'=0.2) [mdeg] | isobestic point ([2]; poly(dG.dC)) [nm] | negative Cotton effect, ellipticity ([2]; 333 nm, r'=0.2) [mdeg] | new positive Cotton effect shoulder, wavelength ([2]; poly(dG.dC)) [nm] | negative Cotton effect band, ellipticity ([2]; 315 nm, equimolar titration) [mdeg] |
| --- | --- | --- | --- | --- | --- | --- |
| CN(C)CCNC(=O)c1nc(NC(=O)c2nc(NC(=O)c3ccc(N(CCCl)CCCl)cc3)cn2C)cn1C [Compound 6, N-(N',N'-dimethylaminoethyl)-1-methyl-4-{4-[4,4-bis(2-chloroethyl)aminobenzamido]-1-methylimidazole-2-carboxamido}imidazole-2-carboxamide] | 55±5 | 0.7 | 297 | – | – | – |
| CN(C)CCNC(=O)c1nc(NC(=O)c2nc(NC(=O)c3nc(NC(=O)c4ccc(N(CCCl)CCCl)cc4)cn3C)cn2C)cn1C [Compound 7, N-(N',N'-dimethylaminoethyl)-1-methyl-4-{1-methyl-4-[4-(4,4-bis-(2-chloroethyl)aminobenzamido)-1-methylimidazole-2-carboxamido]imidazole-2-carboxamido}imidazole-2-carboxamide] | 45±5 | – | 283 | 1 | – | – |
| CN(C)CCNC(=O)c1nc(NC(=O)c2nc(NC(=O)c3nc(NCc4ccc(N(CCCl)CCCl)cc4)cn3C)cn2C)cn1C [Compound 8, N-(N',N'-dimethylaminoethyl)-1-methyl-4-{1-methyl-4-[4-(4,4-bis-(2-chloroethyl)aminobenzylamino)-1-methylimidazole-2-carboxamido]imidazole-2-carboxamido}imidazole-2-carboxamide] | 85±5 | – | – | – | 288 | – |
| CN(C)CCNC(=O)c1nc(NC(=O)c2nc(NC(=O)c3nc(NC(=O)CCCc4ccc(N(CCCl)CCCl)cc4)cn3C)cn2C)cn1C [Compound 10, N-(N',N'-dimethylaminoethyl)-1-methyl-4-{1-methyl-4-[4-(4,4-bis(2-chloroethyl)aminophenyl-1-butanamido)-1-methylimidazole-2-carboxamido]imidazole-2-carboxamido}imidazole-2-carboxamide] | 100±5 | – | – | – | – | -1.0 |
